Where two headings read alike, the source gives them in different places.
Legend:
CHO-K1 cells [1] = test: Batch fermentation in shake flasks of human IgG1 expressing stable cell populations (Poros A-HPLC titer, viable cell density, viability); type: cell-based, Chinese hamster; conditions: human IgG1, pJF1577, non-selecting conditions
Method: (§1) To efficiently test the impact of different procedures on improving selection stringency, experimental testing in stable cell populations was performed. As test molecules, enhanced green fluorescent protein (GFP) as well as a human IgG1 were chosen. CHO-K1 cells adapted to growth in suspension in defined medium were obtained from SAFC and cultivated in EX-CELL CD CHO Fusion medium (SAFC 14365C). Custom-made EX-CELL CD CHO Fusion medium without L-Proline (Pro) and without L-Ornithine (Orn) ("proline-free medium") was obtained from SAFC. The expression vector system was based on modified versions of "CET 1019 AS-puro-SceI" and "CET 1019 AD-puro-SceI" for GFP and human IgG1, respectively, from Merck-Millipore, containing the Puromycin selection marker (Puromycin N-acetyl-transferase) known to exert a high selection stringency. To minimize variations in cell populations derived from using different transfections or different vectors, the first series of experiments were conducted using vectors into which a P5CS expression cassette was cloned upstream of a UCOE element, in addition to the Puromycin selection marker present downstream of a gene of interest. This way, it was possible to pool different transfections using the same vector to obtain a common starting point, and split the mixture according to different selection conditions, minimizing any variations that are not due to selection conditions themselves. Expression of long and short isoform of murine P5CS (Protein: Delta-1-pyrroline-5-carboxylate synthase; Gene: Aldh18a1; UniProtKB accession number: Q9Z110-1 & Q9Z110-2) was driven by a SV40 promoter. A SV40 polyadenylation sequence was used at the 3' end of the gene. More details can be found in Table 1. Typically, CHO cells were cultivated in EX-CELL CD CHO Fusion medium containing 6 mM GlutaMAX (Thermo Fisher, 35050-38) ("CD-Fusion medium") at 37 °C with 5% CO2. Cells were grown to logarithmic phase under shaking conditions for transfections. 1e7 cells/cuvette were transfected using nucleofection (Amaxa Nucleofector II, following the manufacturer's recommendations) with 5 µg of linearized DNA. After transfection, cells were taken up in 1 ml medium and transferred into 1 well of a 6 well microtiter plate (MTP) already containing 1 ml medium. The cells were incubated for 24 h without shaking, after which 9 ml medium were added and cells were washed (either in standard or proline-free medium). Multiple transfections were pooled, if applicable. Cells were adjusted to 2e5 viable cells/ml and 10 ml were transferred to T-25 flasks. Reference cell populations were selected using 10 µg/ml Puromycin in CD-Fusion medium. For P5CS-based selection, EX-CELL CD CHO Fusion medium (custom-made, SAFC) containing 6 mM GlutaMAX without proline and without ornithine was used ("proline-free" or "CD-Fusion w/o Pro" medium), with or without additional selection pressure.
(§2) Cell viability of the different populations was monitored over time. As soon as cell populations appeared to recover from selection pressure, cells were transferred to Shake Flask or TubeSpins for expansion in suspension under shaking conditions. Subsequently, stable cell populations transfected with IgG were seeded at 2e5 viable cells/ml for batch fermentation without selection pressure (i.e. standard CD-Fusion medium containing proline and no other selective agents). The cells were cultivated for 5-10 days, viable cell densities and productivity were monitored over time. IgG titers were determined using Poros A-HPLC method. Typically, final batch titers were recorded at a time point at which majority of cultures had around 70% viability. Stable cell populations transfected with GFP vector were subjected to analysis by flow cytometry using Guava easyCyte 8HT Benchtop Flow Cytometer (Millipore). 250 µl of cell culture were transferred to 96 MTP and washed with PBS. Dead cells were excluded from analysis using propidium iodide (PI). […]

CHO-K1 cells [2] = test: Cell viability post-transfection of transfected cell populations under selection conditions; type: cell-based, Chinese hamster; conditions: for concentration at which recovery kinetics were affected: Table 8
Method: as §1, §2

CHO-K1 cells [3] = test: Flow cytometric analysis of GFP expression (MFI, high fluorescing cells) in stably selected cell populations; type: cell-based, Chinese hamster
Method: as §1, §2

CHO-S cells = tested on: CHO-S cells
Method: CHO-S cells (Thermo Fisher Scientific, A1155701) were passaged according to the manufacturer's recommendations at 37 °C and 5% CO2 in CD-CHO medium (Thermo Fisher Scientific , 10743029) containing 8 mM GlutaMAX. […] Viable cell densities and viabilities were recorded daily.

[4] = day 20 post-transfection, pJF1556, CD-Fusion w/o Pro + 0.1 mM A2C
[5] = day 20 post-transfection, pJF1556, CD-Fusion w/o Pro + 0.1 mM A2C + 10 µg/ml Puromycin
[6] = day 20 post-transfection, pJF1556, CD-Fusion w/o Pro + 0.25 mM A2C
[7] = Day 1, Proline-free Medium + 0,5mM L-Prolin
[8] = Day 1, Proline-free Medium + 0,25mM L-Prolin
[9] = Day 1, Proline-free Medium + 1,0mM L-Prolin
[10] = Day 1, Proline-free Medium + 2,5mM L-Prolin
[11] = Day 2, Proline-free Medium + 0,5mM L-Prolin
[12] = Day 2, Proline-free Medium + 0,25mM L-Prolin
[13] = Day 2, Proline-free Medium + 1,0mM L-Prolin
[14] = Day 2, Proline-free Medium + 2,5mM L-Prolin
[15] = Day 3, Proline-free Medium + 0,5mM L-Prolin
[16] = Day 3, Proline-free Medium + 0,25mM L-Prolin
[17] = Day 3, Proline-free Medium + 1,0mM L-Prolin
[18] = Day 3, Proline-free Medium + 2,5mM L-Prolin
[19] = Day 6, Proline-free Medium + 0,5mM L-Prolin
[20] = Day 6, Proline-free Medium + 0,25mM L-Prolin
[21] = Day 6, Proline-free Medium + 1,0mM L-Prolin
[22] = Day 6, Proline-free Medium + 2,5mM L-Prolin

O=C(O)[C@@H]1CCN1 [A2C, L-Azetidine-2-carboxylic acid]
Batch titer day 7 (CHO-K1 cells [1]; selected in CD-Fusion w/o Pro + 0.1 mM A2C + 10 µg/ml Puromycin): 82 mg/L
Batch titer day 7 (CHO-K1 cells [1]; selected in CD-Fusion w/o Pro + 0.1 mM A2C): 135 mg/L
Batch titer day 7 (CHO-K1 cells [1]; selected in CD-Fusion w/o Pro + 0.25 mM A2C + 10 µg/ml Puromycin): 145 mg/L
Batch titer day 7 (CHO-K1 cells [1]; selected in CD-Fusion w/o Pro + 0.25 mM A2C): 166 mg/L
Batch titer day 7 (CHO-K1 cells [1]; selected in CD-Fusion w/o Pro + 0.5 mM A2C + 10 µg/ml Puromycin): 34 mg/L
Batch titer day 7 (CHO-K1 cells [1]; selected in CD-Fusion w/o Pro + 0.5 mM A2C): 166 mg/L
Viability on day 13 post-transfection (CHO-K1 cells [2]; MOCK, CD-Fusion w/o Pro + 0.5 mM A2C + 10 µg/ml Puromycin): 15%
Viability on day 13 post-transfection (CHO-K1 cells [2]; pJF1556, CD-Fusion w/o Pro + 0.1 mM A2C): 85%
Viability on day 13 post-transfection (CHO-K1 cells [2]; pJF1556, CD-Fusion w/o Pro + 0.1 mM A2C + 10 µg/ml Puromycin): 62%
Viability on day 13 post-transfection (CHO-K1 cells [2]; pJF1556, CD-Fusion w/o Pro + 0.25 mM A2C): 70%
Viability on day 13 post-transfection (CHO-K1 cells [2]; pJF1556, CD-Fusion w/o Pro + 0.25 mM A2C + 10 µg/ml Puromycin): 22%
Viability on day 13 post-transfection (CHO-K1 cells [2]; pJF1556, CD-Fusion w/o Pro + 0.5 mM A2C): 21%
Viability on day 13 post-transfection (CHO-K1 cells [2]; pJF1556, CD-Fusion w/o Pro + 0.5 mM A2C + 10 µg/ml Puromycin): 21%
Frequency of high fluorescing cells (CHO-K1 cells [3]; [4]): 7.1%
Median Fluorescence Intensity (MFI) (yellow) (CHO-K1 cells [3]; [4]): 5743
Frequency of high fluorescing cells (CHO-K1 cells [3]; [5]): 13.6%
Median Fluorescence Intensity (MFI) (yellow) (CHO-K1 cells [3]; [5]): 9448
Frequency of high fluorescing cells (CHO-K1 cells [3]; [6]): 7.1%
Median Fluorescence Intensity (MFI) (yellow) (CHO-K1 cells [3]; [6]): 7578

O=C(O)[C@@H]1CCCN1 [L-Prolin, L-Proline]
Viability (CHO-S cells; [7]): 98,2
Viable Cell Conc. (CHO-S cells; [7]): 3,7E+05
Viability (CHO-S cells; [8]): 95,6
Viable Cell Conc. (CHO-S cells; [8]): 3,5E+05
Viability (CHO-S cells; [9]): 100,0
Viable Cell Conc. (CHO-S cells; [9]): 3,6E+05
Viability (CHO-S cells; [10]): 99,3
Viable Cell Conc. (CHO-S cells; [10]): 3,3E+05
Viability (CHO-S cells; [11]): 99,7
Viable Cell Conc. (CHO-S cells; [11]): 6,3E+05
Viability (CHO-S cells; [12]): 98,1
Viable Cell Conc. (CHO-S cells; [12]): 5,7E+05
Viability (CHO-S cells; [13]): 99,7
Viable Cell Conc. (CHO-S cells; [13]): 5,6E+05
Viability (CHO-S cells; [14]): 97,5
Viable Cell Conc. (CHO-S cells; [14]): 4,9E+05
Viability (CHO-S cells; [15]): 99,5
Viable Cell Conc. (CHO-S cells; [15]): 1,2E+06
Viability (CHO-S cells; [16]): 99,6
Viable Cell Conc. (CHO-S cells; [16]): 9,1E+05
Viability (CHO-S cells; [17]): 99,2
Viable Cell Conc. (CHO-S cells; [17]): 1,1E+06
Viability (CHO-S cells; [18]): 99,8
Viable Cell Conc. (CHO-S cells; [18]): 1,1E+06
Viability (CHO-S cells; [19]): 99,9
Viable Cell Conc. (CHO-S cells; [19]): 3,8E+06
Viability (CHO-S cells; [20]): 98,2
Viable Cell Conc. (CHO-S cells; [20]): 1,3E+06
Viability (CHO-S cells; [21]): 99,5
Viable Cell Conc. (CHO-S cells; [21]): 6,6E+06
Viability (CHO-S cells; [22]): 99,7
Viable Cell Conc. (CHO-S cells; [22]): 6,3E+06

O=C(O)C1NCCS1 (stereo not shown) [Thiazolidine-2-carboxylic acid]
Viability on day 12 post-transfection (CHO-K1 cells [2]; pJF1555, CD-Fusion w/o Pro + 0.1 mM Thiazolidine-2-carboxylic acid): 87%
Viability on day 12 post-transfection (CHO-K1 cells [2]; pJF1555, CD-Fusion w/o Pro + 0.5 mM Thiazolidine-2-carboxylic acid): 78%
Viability on day 12 post-transfection (CHO-K1 cells [2]; pJF1555, CD-Fusion w/o Pro + 1 mM Thiazolidine-2-carboxylic acid): 11%
Viability on day 12 post-transfection (CHO-K1 cells [2]; pJF1555, CD-Fusion w/o Pro + 2.5 mM Thiazolidine-2-carboxylic acid): 15%
Viability on day 12 post-transfection (CHO-K1 cells [2]; pJF1555, CD-Fusion w/o Pro + 10 mM Thiazolidine-2-carboxylic acid): 16%
concentration at which recovery kinetics were affected (CHO-K1 cells [2]; pJF1555, proline-free medium): 0.5 to 1 mM
Frequency of high fluorescing cells (CHO-K1 cells [3]; day 15 post-transfection, pJF1555, CD-Fusion w/o Pro + 0.1 mM Thiazolidine-2-carboxylic acid): 4.9%
Frequency of high fluorescing cells (CHO-K1 cells [3]; day 15 post-transfection, pJF1555, CD-Fusion w/o Pro + 0.5 mM Thiazolidine-2-carboxylic acid): 2.3%
Frequency of high fluorescing cells (CHO-K1 cells [3]; day 15 post-transfection, pJF1555, CD-Fusion w/o Pro + 1 mM Thiazolidine-2-carboxylic acid): 0.0%
Frequency of high fluorescing cells (CHO-K1 cells [3]; day 15 post-transfection, pJF1555, CD-Fusion w/o Pro + 2.5 mM Thiazolidine-2-carboxylic acid): 0.0%
Frequency of high fluorescing cells (CHO-K1 cells [3]; day 15 post-transfection, pJF1555, CD-Fusion w/o Pro + 10 mM Thiazolidine-2-carboxylic acid): 0.0%

O=C(O)[C@@H]1C[C@H](O)CN1 [cis-4-Hydroxy-L-Proline]
Viability on day 12 post-transfection (CHO-K1 cells [2]; pJF1555, CD-Fusion w/o Pro + 0.25 mM cis-4-Hydroxy-L-Proline): 89%
Viability on day 12 post-transfection (CHO-K1 cells [2]; pJF1555, CD-Fusion w/o Pro + 0.5 mM cis-4-Hydroxy-L-Proline): 88%
Viability on day 12 post-transfection (CHO-K1 cells [2]; pJF1555, CD-Fusion w/o Pro + 1 mM cis-4-Hydroxy-L-Proline): 65%
Viability on day 12 post-transfection (CHO-K1 cells [2]; pJF1555, CD-Fusion w/o Pro + 2.5 mM cis-4-Hydroxy-L-Proline): 13%
Viability on day 12 post-transfection (CHO-K1 cells [2]; pJF1555, CD-Fusion w/o Pro + 5 mM cis-4-Hydroxy-L-Proline): 13%
Viability on day 12 post-transfection (CHO-K1 cells [2]; pJF1555, CD-Fusion w/o Pro + 10 mM cis-4-Hydroxy-L-Proline): 20%
concentration at which recovery kinetics were affected (CHO-K1 cells [2]; pJF1555, proline-free medium): ≥ 1 mM
Frequency of high fluorescing cells (CHO-K1 cells [3]; day 15 post-transfection, pJF1555, CD-Fusion w/o Pro + 0.25 mM cis-4-Hydroxy-L-Proline): 3.3%
Frequency of high fluorescing cells (CHO-K1 cells [3]; day 15 post-transfection, pJF1555, CD-Fusion w/o Pro + 0.5 mM cis-4-Hydroxy-L-Proline): 1.7%
Frequency of high fluorescing cells (CHO-K1 cells [3]; day 15 post-transfection, pJF1555, CD-Fusion w/o Pro + 2.5 mM cis-4-Hydroxy-L-Proline): 1.4%
Frequency of high fluorescing cells (CHO-K1 cells [3]; day 15 post-transfection, pJF1555, CD-Fusion w/o Pro + 5 mM cis-4-Hydroxy-L-Proline): 0.0%
Frequency of high fluorescing cells (CHO-K1 cells [3]; day 15 post-transfection, pJF1555, CD-Fusion w/o Pro + 10 mM cis-4-Hydroxy-L-Proline): 0.0%

O=C(O)[C@@H]1C[C@@H](O)CN1 [trans-4-Hydroxy-L-Proline]
Viability on day 12 post-transfection (CHO-K1 cells [2]; pJF1555, CD-Fusion w/o Pro + 5 mM trans-4-Hydroxy-L-Proline): 84%
Viability on day 12 post-transfection (CHO-K1 cells [2]; pJF1555, CD-Fusion w/o Pro + 10 mM trans-4-Hydroxy-L-Proline): 84%
selection pressure (CHO-K1 cells [2]; up to 10 mM, pJF1555, proline-free medium): no increased selection pressure observable
Frequency of high fluorescing cells (CHO-K1 cells [3]; day 15 post-transfection, pJF1555, CD-Fusion w/o Pro + 5 mM trans-4-Hydroxy-L-Proline): 2.6%
Frequency of high fluorescing cells (CHO-K1 cells [3]; day 15 post-transfection, pJF1555, CD-Fusion w/o Pro + 10 mM trans-4-Hydroxy-L-Proline): 2.6%
